Source: US10670605B2, “Cysteine reactive probes and uses thereof” (The Scripps Research Institute, priority 2015, dated 2020)
One block for each compound: values may come before it.

How the values were obtained:
Assay in all cases: Competitive isoTOP-ABPP in situ (fragment-treated cells)
Format in all cases: cell-based
[1] = target: T1, cysteines in MDA-MB-231 and Ramos cells (Homo sapiens, UniProt Q96T76)
T1 sequence (Q96T76 1-1030): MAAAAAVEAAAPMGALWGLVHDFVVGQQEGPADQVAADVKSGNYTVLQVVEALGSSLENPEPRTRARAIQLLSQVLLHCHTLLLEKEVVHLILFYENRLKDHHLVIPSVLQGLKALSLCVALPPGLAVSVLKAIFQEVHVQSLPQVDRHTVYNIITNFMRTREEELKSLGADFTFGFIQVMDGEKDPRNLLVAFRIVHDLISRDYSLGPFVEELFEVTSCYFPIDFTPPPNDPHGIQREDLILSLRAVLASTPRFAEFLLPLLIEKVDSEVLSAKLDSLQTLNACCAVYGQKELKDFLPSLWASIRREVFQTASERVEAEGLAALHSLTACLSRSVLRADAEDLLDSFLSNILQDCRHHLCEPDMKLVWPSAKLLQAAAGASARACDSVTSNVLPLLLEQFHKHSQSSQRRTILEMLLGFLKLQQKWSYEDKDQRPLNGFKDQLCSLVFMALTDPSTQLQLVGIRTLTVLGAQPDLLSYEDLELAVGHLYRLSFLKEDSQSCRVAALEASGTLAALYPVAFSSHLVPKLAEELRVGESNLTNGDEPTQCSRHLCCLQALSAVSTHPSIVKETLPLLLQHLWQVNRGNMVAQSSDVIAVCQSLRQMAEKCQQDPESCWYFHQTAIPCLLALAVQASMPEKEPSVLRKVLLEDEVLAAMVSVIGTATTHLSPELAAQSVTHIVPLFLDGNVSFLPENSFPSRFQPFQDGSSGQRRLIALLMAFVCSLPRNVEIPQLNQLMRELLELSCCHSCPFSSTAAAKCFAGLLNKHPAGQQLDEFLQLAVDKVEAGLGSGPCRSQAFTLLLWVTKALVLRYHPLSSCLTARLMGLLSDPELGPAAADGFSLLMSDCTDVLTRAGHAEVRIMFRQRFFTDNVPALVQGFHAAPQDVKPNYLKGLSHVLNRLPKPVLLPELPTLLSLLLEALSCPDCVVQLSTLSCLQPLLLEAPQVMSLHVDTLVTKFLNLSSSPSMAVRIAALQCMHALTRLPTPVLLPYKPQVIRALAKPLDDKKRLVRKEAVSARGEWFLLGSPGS

[2] = target: T2, cysteines in MDA-MB-231 and Ramos cells (Homo sapiens, UniProt Q96AB3)
T2 sequence (Q96AB3 1-205): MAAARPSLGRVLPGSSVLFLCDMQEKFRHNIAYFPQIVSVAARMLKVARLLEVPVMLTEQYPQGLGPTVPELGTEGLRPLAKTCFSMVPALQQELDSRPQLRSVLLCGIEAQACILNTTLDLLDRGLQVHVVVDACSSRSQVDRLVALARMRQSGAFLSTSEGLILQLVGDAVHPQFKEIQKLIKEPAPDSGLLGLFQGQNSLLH

[3] = target: T3, cysteines in MDA-MB-231 and Ramos cells (Homo sapiens, UniProt Q9Y3A3)
T3 sequence (Q9Y3A3 1-225): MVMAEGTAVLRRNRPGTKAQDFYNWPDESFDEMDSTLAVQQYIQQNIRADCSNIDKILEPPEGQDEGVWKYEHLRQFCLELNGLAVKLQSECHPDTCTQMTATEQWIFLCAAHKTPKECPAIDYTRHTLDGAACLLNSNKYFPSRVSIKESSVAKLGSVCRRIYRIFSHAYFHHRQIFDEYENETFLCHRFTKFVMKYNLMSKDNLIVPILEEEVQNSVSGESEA

[4] = target: T4, cysteines in MDA-MB-231 and Ramos cells (Homo sapiens, UniProt Q29RF7)
T4 sequence (Q29RF7 1-1337): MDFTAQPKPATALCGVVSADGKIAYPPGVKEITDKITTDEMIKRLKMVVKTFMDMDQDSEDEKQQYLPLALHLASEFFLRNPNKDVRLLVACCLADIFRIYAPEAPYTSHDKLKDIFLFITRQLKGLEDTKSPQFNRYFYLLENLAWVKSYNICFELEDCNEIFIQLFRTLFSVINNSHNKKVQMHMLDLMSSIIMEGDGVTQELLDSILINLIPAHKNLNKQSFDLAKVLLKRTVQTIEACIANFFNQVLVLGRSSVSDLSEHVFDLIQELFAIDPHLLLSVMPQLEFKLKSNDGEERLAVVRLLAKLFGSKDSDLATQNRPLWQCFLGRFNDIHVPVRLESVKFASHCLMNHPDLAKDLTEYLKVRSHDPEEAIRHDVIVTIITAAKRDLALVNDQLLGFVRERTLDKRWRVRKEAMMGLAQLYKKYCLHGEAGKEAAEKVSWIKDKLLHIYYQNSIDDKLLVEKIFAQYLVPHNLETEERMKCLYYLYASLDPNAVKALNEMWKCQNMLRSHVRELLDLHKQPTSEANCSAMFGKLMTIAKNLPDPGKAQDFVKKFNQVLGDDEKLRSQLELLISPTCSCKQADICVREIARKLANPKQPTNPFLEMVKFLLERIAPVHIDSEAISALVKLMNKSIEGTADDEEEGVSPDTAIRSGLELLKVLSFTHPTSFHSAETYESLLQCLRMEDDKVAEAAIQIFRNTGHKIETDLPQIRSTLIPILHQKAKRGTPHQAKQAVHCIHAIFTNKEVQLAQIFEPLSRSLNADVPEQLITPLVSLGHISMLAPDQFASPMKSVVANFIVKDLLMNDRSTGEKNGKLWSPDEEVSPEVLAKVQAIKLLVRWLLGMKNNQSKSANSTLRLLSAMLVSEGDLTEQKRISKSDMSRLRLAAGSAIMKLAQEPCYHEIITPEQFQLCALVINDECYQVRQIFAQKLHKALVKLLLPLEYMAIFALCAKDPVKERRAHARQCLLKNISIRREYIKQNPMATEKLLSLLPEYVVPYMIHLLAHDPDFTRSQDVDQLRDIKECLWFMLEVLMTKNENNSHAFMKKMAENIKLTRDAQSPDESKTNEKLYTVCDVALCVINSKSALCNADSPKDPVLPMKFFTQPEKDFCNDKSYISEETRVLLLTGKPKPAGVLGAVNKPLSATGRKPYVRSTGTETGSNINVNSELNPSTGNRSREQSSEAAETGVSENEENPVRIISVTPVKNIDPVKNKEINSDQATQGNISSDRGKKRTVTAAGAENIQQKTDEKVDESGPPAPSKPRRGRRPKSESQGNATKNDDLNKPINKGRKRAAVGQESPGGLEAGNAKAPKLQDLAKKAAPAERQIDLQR

Compound: COc1ccc(C2CC(c3cccs3)=NN2C(=O)CCl)cc1 (stereo not shown) [compound 4]
isoTOP-ABPP reactivity Q9Y3A3_C134 MOB4 ([3]; 100 μM in situ 231): 1.2
isoTOP-ABPP reactivity Q96T76_C848 MMS19 ([1]; 100 μM in situ 231): 20.0
isoTOP-ABPP reactivity Q29RF7_C242 PDS5A ([4]; 100 μM in situ 231): 3.0
isoTOP-ABPP reactivity Q29RF7_C532 PDS5A ([4]; 100 μM in situ 231): 20.0
isoTOP-ABPP reactivity Q96AB3_C114 ISOC2 ([2]; 100 μM in situ 231): 0.8

Compound: O=C(CCl)N1CCN(S(=O)(=O)c2ccccc2F)CC1 [compound 10]
isoTOP-ABPP ratio Q9Y3A3_C134 ([3]; 200 μM, insitu, 231): 1.9
isoTOP-ABPP ratio Q96T76_C848 ([1]; 200 μM, insitu, 231): 2.5
isoTOP-ABPP ratio, cysteine Q96T76_C819 ([1]; 200 μM, insitu, ramos): 3.0
isoTOP-ABPP ratio, cysteine Q29RF7_C532 ([4]; 200 μM, insitu, 231): 20.0
isoTOP-ABPP ratio Q96AB3_C114 ([2]; 200 μM, insitu, 231): 20.0

Compound: Cn1cc(S(=O)(=O)N2CCOCC2)cc1C(=O)NC(=O)CCl [compound 11]
isoTOP-ABPP ratio Q9Y3A3_C134 ([3]; 100 μM in situ 231): 1.8
isoTOP-ABPP ratio, cysteine Q96T76_C819 ([1]; 100 μM in situ 231): 0.8
isoTOP-ABPP ratio, cysteine Q29RF7_C242 ([4]; 100 μM in situ 231): 0.9
isoTOP-ABPP ratio Q96AB3_C114 ([2]; 100 μM in situ 231): 0.9

Compound: O=C(CCl)NC(=O)NC12CC3CC(CC(C3)C1)C2 [compound 12]
isoTOP-ABPP ratio Q9Y3A3_C134 ([3]; 200 μM, insitu, 231): 1.4
isoTOP-ABPP ratio Q96T76_C848 ([1]; 200 μM, insitu, 231): 20.0
isoTOP-ABPP ratio, cysteine Q29RF7_C242 ([4]; 200 μM, insitu, 231): 12.9
isoTOP-ABPP ratio Q96AB3_C114 ([2]; 200 μM, insitu, 231): 1.6

Compound: O=C(CCl)NCCc1c[nH]c2ccccc12 [compound 13]
isoTOP-ABPP ratio Q9Y3A3_C134 ([3]; 200 μM, insitu, ramos): 1.9
isoTOP-ABPP ratio Q96T76_C848 ([1]; 200 μM, insitu, 231): 0.6
isoTOP-ABPP ratio Q96T76_C848 ([1]; 200 μM, insitu, ramos): 1.5
isoTOP-ABPP ratio, cysteine Q29RF7_C532 ([4]; 200 μM, insitu, ramos): 2.0
isoTOP-ABPP ratio Q96AB3_C114 ([2]; 200 μM, insitu, 231): 2.4

Further lines, results first:

isoTOP-ABPP reactivity Q96T76_C848 MMS19 ([1]; 200 μM, insitu, 231): 3.9
isoTOP-ABPP reactivity Q96AB3_C114 ISOC2 ([2]; 200 μM, insitu, 231): 1.6
Compound: COc1ccc2c(c1)CCCN2C(=O)CCl [compound 2]

isoTOP-ABPP reactivity Q9Y3A3_C134 MOB4 ([3]; 200 μM, insitu, 231): 1.6
isoTOP-ABPP reactivity Q96T76_C848 MMS19 ([1]; 200 μM, insitu, 231): 1.7
isoTOP-ABPP reactivity Q29RF7_C242 PDS5A ([4]; 200 μM, insitu, 231): 1.0
isoTOP-ABPP reactivity Q96AB3_C114 ISOC2 ([2]; 200 μM, insitu, 231): 4.7
Compound: COc1cc2c(cc1OC)CN(C(=O)CCl)CC2 [compound 8]

isoTOP-ABPP reactivity Q9Y3A3_C134 MOB4 ([3]; 200 μM, insitu, 231): 20.0
isoTOP-ABPP reactivity Q96T76_C848 MMS19 ([1]; 200 μM, insitu, 231): 20.0
Compound: O=C(CCl)N1CCC(Cc2ccccc2)CC1 [compound 9]
